Patent US8450362B2, “Amidine-containing compounds useful as muscarinic receptor antagonists” (Theravance, Inc., priority 2007, dated 2013)

Legend:
[1] = system: MCh bronchoconstrictor response; test: Rat Einthoven assay (bronchoprotection, inhaled dosing); assay type: in vivo; details: inhalation; for ID50 (bronchoprotection): 1.5 hrs post-dose
Procedure: All test compounds are diluted in sterile water and are dosed via the inhalation route (IH). The rats (Sprague-Dawley, male, 250-350 g) are exposed to the aerosol generated from an LC Star Nebulizer Set and driven by a mixture of gases (5% CO2/95% atmospheric air). Each test compound solution is nebulized over a 10 minute time period in a pie shaped dosing chamber capable of holding six rats. At predetermined time points after inhalation of compound, the Einthoven assay is performed.
Thirty minutes prior to the start of pulmonary evaluation, the animals are anesthetized with inactin (thiobutabarbital, 120 mg/kg IP). The jugular vein is catheterized with saline filled polyethylene catheters (PE-50) and used to infuse MCh. The trachea is then dissected and cannulated with a 14G needle and used for rat ventilation during pulmonary evaluation. Once surgery is complete, rats are ventilated using a piston respirator set at a stroke volume of 1 ml/100 g body weight but not exceeding 2.5 ml volume, and at a rate of 90 strokes per minute.
The changes in pressure that occur with each breath are measured. Baseline values are collected for at least 2.5 minutes then rats are challenged non-cumulatively with 2-fold incremental increases of the bronchoconstrictor MCh (5, 10, 20, 40 and 80 μg/ml). The MCh is infused for 2.5 minutes from a syringe pump at a rate of 2 mL/kg/min. The animals are euthanized upon completion of the studies.
Changes in ventilation pressure (cm H2O) in treated animals are expressed as % inhibition of MCh response relative to control animals.
Standard muscarinic antagonists were evaluated in the rat Einthoven assay 1.5 hrs post-dose.
Standards tiotropium and ipratropium were also evaluated 24 hr and/or 6 hr post-dose in the rat Einthoven assay. […] The observed loss of activity at this time point (6 hr) is consistent with its relatively short duration of action in the clinic.

[2] = system: pilocarpine-induced salivation; test: Rat antisialagogue assay; assay type: in vivo; details: evaluated at 1, 6 and 24 hr post-dose
Procedure: Rats (Sprague-Dawley, male, 250-350 g) are dosed, anesthetized and cannulated as described for Assay 3. At predetermined time points and after surgery, animals are placed on their dorsal side at a 20° incline with their head in a downward slope. A pre-weighed gauze pad is inserted in the animal's mouth and the muscarinic agonist pilocarpine (PILO) (3 mg/kg, iv.) is administered. Saliva produced during 10 minutes post-PILO is measured gravimetrically by determining the weight of the gauze pad before and after PILO. Antisialagogue effects are expressed as % inhibition of salivation relative to control animals.
The rat antisialagogue assay was developed to assess systemic exposure and calculate the lung selectivity index (LSI) of test compounds. The standard, tiotropium, was evaluated in this model at 1, 6, and 24 hr post-dose. […] This finding is consistent with the peak effects observed in the Einthoven assay. This model is a modified version of the procedure described in Rechter, “Estimation of anticholinergic drug effects in mice by antagonism against pilocarpine-induced salivation” Ata Pharmacol Toxicol 24:243-254 […]. The mean weight of saliva in vehicle-treated animals, at each pre-treatment time, is calculated and used to compute % inhibition of salivation, at the corresponding pre-treatment time, at each dose. […]

## C[N+]1(C)CCC(OC(=O)C(O)(c2ccccc2)C2CCCC2)C1 (centres unmarked) [glycopyrrolate]
[1]
  ID50 (bronchoprotection): 15 µg/mL

## CC(C)[N+]1(C)[C@@H]2CC[C@H]1C[C@@H](OC(=O)C(CO)c1ccccc1)C2 (some centres unmarked) [ipratropium]
[1]; 10 and 30 μg/ml, 6 hr vs 1.5 hr
  fold less potent 6-hr post-dose compared to 1.5 hr potency: about 3 fold
[1]
  ID50 (bronchoprotection): 4.4 µg/mL

## C[N+]1(C)[C@@H]2C[C@@H](OC(=O)C(O)(c3cccs3)c3cccs3)C[C@H]1[C@@H]1O[C@@H]12 [tiotropium]
[2]
  time post dose of greatest potency at inhibiting pilocarpine-induced salivation: 6 h
[1]
  6 hr versus 24 hr potency values: not significantly different from each other
  ID50 (bronchoprotection): 6 µg/mL
[1]; 6 hr and 24 hr vs 1.5 hr
  fold more potent at 6 hr and 24 hr compared to 1.5 hr potency: about 2 fold
[1]; slow onset of effect
  time of peak bronchoprotection post-dose: 6 h
